Entries after “also recorded” stand apart in the source; their conditions may differ. One block for each compound: values may come before it.
Key:
[1] = Stability of the compound
[2] = test system: MCF-7 human breast cancer cell line; test: MCF-7 human breast cancer cell line test; format: cell-based
Source text: The practical use of any compound given to humans for the treatment of obesity require, of course, that the compound not only be effective, but able to pass the FDA requirements and be approved as a drug suitable for humans. […] One test used to determine reactivity with human breast cancer cells is the “MCF-7 human breast cancer cell line test”. The lower the concentration of drug required to produce agonist activity, the more potential there is for problems with cancer causing &/or promotion in humans A comfortable level in the pharmaceutical industry would be a reactivity in the micromolar range. In the case of oleyl estrone, agonist activity begins at […]; with estrone eicosenoate, agonist activity begins at a ten times greater concentration of 1.0 nanomolar. This low concentration of agonist activity mitigates the possibility that these compounds would gain FDA approval for either drug.

[3] = test system: human T47D breast cells; conditions: ER-CALUX; cited from earlier work
[4] = Rat study of 2 hydroxyestrone eicosenoate (Example 9); format: in vivo, Osborne Mendle rats; conditions: rats, oral gavage 21 days, 10, 5, 3.33 or 2.5 micromoles/kg
Protocol: Osborne Mendle rats are selected as the study subjects due to their propensity to gain fat to when fed a high fat diet. An initial measurement of body weight is performed on each rat.
The rats are placed individually in appropriate cages and allowed an ad libitum diet of standard rat chow and water for a 10-day period. During this 10-day period the rats are gavaged daily with 0.1 cc volume of sunflower oil to allow them to become comfortable with being handled and receiving the gavage tube (it takes about 10 days for this acclimation to occur, and is important so that the animals are not stressed by the gavage).
Daily measurements include the following: • 1. Weight • 2. Weight of food consumed • 3. Spillage • 4. Water consumed, both volume and weight
The rats remain confined and are denied out-of-cage activity or exercise for the duration of the experiment other than normal daily activity confined to the cage. This initial 10 day period establishes a pattern and average of weight gain, to acclimate the animals to the gavage procedure, and determine the average food and water consumption for each rat. […]
At the end of the study, rats are anesthetized then sacrificed via guillotine. […] Weight of the uterus is determined. […]

[5] = Human study of 2 hydroxy estrone eicosenoate (Example 8); format: in vivo; conditions: humans, oral capsule, 0.75 or 0.375 micromoles/kg
Protocol: In this random, double-blind, placebo controlled study, subjects are selected to one of three groups and take a capsule orally every morning containing one of the following: a) sunflower oil (placebo), b) 2 hydroxy estrone eicosenoate dissolved in sunflower oil at a dose of 0.75 micromoles/kg, or c) 2 hydroxy estrone eicosenoate dissolved in sunflower oil at a dose of 0.375 micromoles/kg. […]
Different tests are performed at least five different times during each study, namely at the screening of potential participants, at the beginning of the study, weekly during the trials, at the end of the first 4 week period and at the end of the second 4 week treatment period. • 1) SCREENING: Subjects are screened to exclude hypothyroidism, pregnancy, and heart disease. […] Subjects selected to participate in the studies have the following initial measurements: WEIGHT, WAIST to HIP RATIO, HEIGHT, BMI (calculated), BODY FAT % & TOTAL BODY FAT (via bioelectrical impedance method). […]
Ad libitum diets are followed, and food intake and appetite are assessed daily by the patient with an appropriate questionnaire and booklet. […]

[6] = Rabbit 10-day oral study: body weight and food consumed (Example 1)
[7] = cited from earlier work

stability [1]: stable
SMILES: CCCCCCCC/C=C\CCCCCCCCCC(=O)Oc1cc2c(cc1Br)[C@H]1CC[C@]3(C)C(=O)CC[C@H]3[C@@H]1CC2 (relative stereo) [bromo compound, 2-bromoestrone ester of cis-11-eicosenoic acid]
reactivity in MCF-7 test ([2]; compared with oleoyl estrone): only as reactive as oleoyl estrone

SMILES: C[C@]12CC[C@@H]3c4cc(O)c(O)cc4CC[C@H]3[C@@H]1CCC2=O [2 hydroxy estrone]
times less active than estrone [3]: 10,000 times

SMILES: CCCCCCCC/C=C\CCCCCCCCCC(=O)Oc1cc2c(cc1O)[C@H]1CC[C@]3(C)C(=O)CC[C@H]3[C@@H]1CC2 [2-hydroxy estrone eicosenoate]
body weight &/or body fat [4]: reduction of body weight &/or body fat | food consumption [4]: reduction in food consumption | appetite [5]: reduces appetite | weight loss, loss of body fat, and/or decrease of body fat% [5]: produces weight loss

SMILES: CCCCCCCC/C=C\CCCCCCCC(=O)Oc1ccc2c(c1)CC[C@@H]1[C@@H]2CC[C@]2(C)C(=O)CC[C@@H]12 [OE, Oleoyl-estrone, reference compound]
concentration at which agonist activity begins ([2]; MCF-7 human breast cancer cells): 0.9 nM | FINAL WT. ([6]; OE 2 mg/d oral in peanut oil, 10 days, one rabbit, initial wt 3.70 kg): 3.60 kg | WT. Δ w/ Rx 10 days ([6]; OE 2 mg/d oral, 10 days, pre-Rx 10 day avg. +0.121, control +0.14): −0.10 kg | FOOD/DAY AVG. w/ Rx ([6]; OE 2 mg/d oral, 10 days, pre-Rx avg 160.55): 93.8 grams | side effect, behaviour ([6]; OE 2 mg/d oral, after one week of therapy, rabbit): very agitated, mean and aggressive; also recorded: irritability and aggressive behavior | lipid reserves ([7]; Zucker lean rats, one study): lost virtually all their lipid reserves | weight loss ([7]; variety of rats, i.v. or oral, published articles): rapid and sustained weight loss

SMILES: CCCCCCCCCCCCCCCCCC(=O)Oc1ccc2c(c1)CCC1C2CCC2(C)C(=O)CCC12 (stereo not drawn) [stearoyl estrone]
efficacy compared with oleoyl estrone ([7]; Life Sci, 1998: 62 (15): 1349-59): less effective
